The first assay concerns human plasma. The experiment in a line: Anticoagulant effect on human blood in vitro (APTT clotting time, CT2.0). The conditions noted are these: final concentration of compound corresponding to aPTT of the 2-fold blank control. How it is done:
Activated partial thromboplastin time (APTT) measurement reagent was mixed with plasma and the reaction was carried out continuously resulting in a change in optical density up to the clotting point, and the clotting time (CT) was measured by optical turbidimetry using a semi-automatic coagulation analyzer. The in vitro anticoagulant activity of compounds on human blood was determined by detecting the clotting time of plasma treated with different concentrations of compounds, and the corresponding concentration of compounds prolonging clotting time was calculated.
Human plasma used in the experiment was purchased from HD Biosciences (Shanghai) Co., Ltd.; Activated partial thromboplastin time determination kit was purchased from Taizhou Zhongqin Shidi Biotechnology Co., Ltd., Item No. SS00220005.
(§1) The compounds were dissolved in 100% DMSO, 20 mM, and stored at room temperature in a nitrogen cabinet.
a. The NaCl reagent in the kit was incubated half an hour in advance, and the APTT reagent was balanced to room temperature.
b. The compound was continuously diluted at 14 concentration points using a Bravo liquid workstation with a 2-fold gradient.
c. 0.75 μL of the compound was added to the measuring cup, double-replicate wells; 50 μL of plasma was added and 50 μL of APTT reagent was added, the mixture was mixed well and put into coagulation analyzer for incubation at 37° C. for 3 minutes.
d. APTT assay was started, 50 μL of NaCl was added to start the reaction, and the clotting time was counted.
e. Control clotting time was measured using 100% DMSO instead of the compound, and the final concentration of DMSO was 0.5%.
Data were curve-fitted using Graphpad Prism to calculate CT2.0, the final concentration of compound corresponding to aPTT of the 2-fold blank control was calculated.
T1 sequence (P03951 388-625 limits assumed): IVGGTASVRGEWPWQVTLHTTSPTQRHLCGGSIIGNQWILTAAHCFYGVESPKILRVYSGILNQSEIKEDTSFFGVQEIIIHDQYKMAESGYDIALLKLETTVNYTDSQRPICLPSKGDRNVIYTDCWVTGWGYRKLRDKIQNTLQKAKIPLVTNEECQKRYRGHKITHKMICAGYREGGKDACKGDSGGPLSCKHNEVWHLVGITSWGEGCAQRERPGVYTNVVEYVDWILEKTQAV
T1 sequence (P03951 19-387 partner limits assumed): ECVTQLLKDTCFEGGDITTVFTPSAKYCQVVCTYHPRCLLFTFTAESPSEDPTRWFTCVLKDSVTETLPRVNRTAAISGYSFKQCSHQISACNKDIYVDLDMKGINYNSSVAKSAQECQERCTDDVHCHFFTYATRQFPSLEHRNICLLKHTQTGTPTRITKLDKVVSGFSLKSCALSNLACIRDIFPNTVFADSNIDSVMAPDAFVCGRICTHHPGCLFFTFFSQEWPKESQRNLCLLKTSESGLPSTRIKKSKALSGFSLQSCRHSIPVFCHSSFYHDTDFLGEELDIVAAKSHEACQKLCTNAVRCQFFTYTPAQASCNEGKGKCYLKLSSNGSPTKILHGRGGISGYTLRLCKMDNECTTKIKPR
Consider `Nc1ccc(-c2[nH]c([C@@H]3[C@H]4C[C@H]4c4cc(-c5cc(Cl)ccc5-n5cnnn5)cc(=O)n43)nc2F)c(F)c1F` [Embodiment 48], for which the CT2.0 is 3.65 µM.
On the same count and under the same terms, next, `Nc1ccc(-c2[nH]c([C@@H]3[C@H]4C[C@H]4c4cc(-c5cc(Cl)ccc5-n5cnnn5)cc(=O)n43)nc2F)cc1OC(F)(F)F` [Embodiment 49]: 6.86 µM.
Same read-out and setting: for `Nc1ccc(-c2[nH]c([C@@H]3[C@H]4C[C@H]4c4cc(-c5cc(Cl)ccc5-n5cnnn5)cc(=O)n43)nc2F)cc1C(F)(F)F` [Embodiment 50] the value was 3.16 µM; for `O=c1cnc2cc(-c3cnc([C@@H]4[C@H]5C[C@H]5c5cc(-c6cc(Cl)ccc6-n6cnnn6)cc(=O)n54)[nH]3)ccc2[nH]1` [Embodiment 55], 0.67 µM; for `O=C1Nc2ccc(-c3cnc([C@@H]4[C@H]5C[C@H]5c5cc(-c6cc(Cl)ccc6-n6cnnn6)cc(=O)n54)[nH]3)cc2CO1` [Embodiment 57], 0.54 µM.
As for `O=c1[nH]c2ccc(-c3[nH]c([C@@H]4[C@H]5C[C@H]5c5cc(-c6cc(Cl)ccc6-n6cnnn6)cc(=O)n54)nc3F)cc2cc1C(F)(F)F` [Embodiment 58], the CT2.0 came to 1.21 µM.
Still for that read-out and setting: for `CC1Cc2cc(-c3[nH]c([C@@H]4[C@H]5C[C@H]5c5cc(-c6cc(Cl)ccc6-n6cnnn6)cc(=O)n54)nc3F)ccc2NC1=O` (some centres unmarked) [Embodiment 59] the value was 0.84 µM.
The same measure, in the same setting: next, `O=C1COc2cc(-c3[nH]c([C@@H]4[C@H]5C[C@H]5c5cc(-c6cc(Cl)ccc6-n6cc(Cl)nn6)cc(=O)n54)nc3F)ccc2N1` [Embodiment 62]: 2.32 µM.
On the same count and under the same terms, next, `O=C1Nc2ccc(-c3[nH]c([C@@H]4[C@H]5C[C@H]5c5cc(-c6cc(Cl)ccc6-n6cc(Cl)nn6)cc(=O)n54)nc3F)cc2CO1` [Embodiment 64]: 1.11 µM; `Nc1noc2c(F)c(-c3cnc([C@@H]4[C@H]5C[C@H]5c5cc(-c6cc(Cl)ccc6-n6cc(Cl)nn6)cc(=O)n54)[nH]3)ccc12` [Embodiment 68]: 0.65 µM.
Molecule `Nc1noc2cc(-c3[nH]c([C@@H]4[C@H]5C[C@H]5c5cc(-c6cc(Cl)ccc6-n6cc(Cl)nn6)cc(=O)n54)nc3F)ccc12` [Embodiment 69] gave a CT2.0 of 0.86 µM.
Same read-out and setting: for `CNc1noc2cc(-c3[nH]c([C@@H]4[C@H]5C[C@H]5c5cc(-c6cc(Cl)ccc6-n6cc(Cl)nn6)cc(=O)n54)nc3F)ccc12` [Embodiment 70] the value was 1.32 µM.
Same read-out and setting: for `Cn1nc(N)c2ccc(-c3[nH]c([C@@H]4[C@H]5C[C@H]5c5cc(-c6cc(Cl)ccc6-n6cc(Cl)nn6)cc(=O)n54)nc3F)cc21` [Embodiment 75] the value was 1.42 µM; for `Cn1nc(N)c2ccc(-c3[nH]c([C@@H]4[C@H]5C[C@H]5c5cc(-c6cc(Cl)ccc6-n6cnnn6)cc(=O)n54)nc3F)cc21` [Embodiment 76], 0.43 µM.
`O=C1CCc2cc(-c3[nH]c([C@@H]4[C@H]5C[C@H]5c5cc(-c6cc(Cl)ccc6-n6cc(Cl)nn6)cc(=O)n54)nc3Cl)ccc2N1` [Embodiment 77] had a CT2.0 of 0.82 µM.
The same measure, in the same setting: for `Nc1n[nH]c2cc(-c3[nH]c([C@@H]4[C@H]5C[C@H]5c5cc(-c6cc(Cl)ccc6-n6cc(C(F)(F)F)nn6)cc(=O)n54)nc3F)ccc12` [Embodiment 78] the value was 0.86 µM.

The next assay addresses T1, coagulation factor XIa protease (FXIa) (Homo sapiens, UniProt P03951).
T1 construct: purchased Abcam ab62411
Kind of assay: Inhibition of coagulation factor XIa (FXIa), chromogenic substrate, absorbance at 405. The assay is classed as biochemical. The conditions noted are these: FXIa 0.05 μg/mL, substrate 2.5 mM, 37° C. 15 minutes. How it is done: Coagulation factor XIa protease (FXIa) decomposed the specific substrate to produce yellow p-nitroaniline (pNA), pNA had strong absorption at 405 nm. The inhibitory activity of the compounds on coagulation factor XIa was determined by assaying the absorbance of the compounds at […].
The coagulation factor XIa protease used in the experiment was purchased from Abcam Company, Item No. ab62411; the coagulation factor XIa-specific substrate was purchased from HYPHEN BioMed, Item No. Biophen cs-21 (66); tris-HCl was purchased from Invitrogen, Item No. 15567-027; NaCl was purchased from ABCONE, Item No. S39168; Twain 20 was purchased from Amersco, Item No. 0777-1L.
as §1
a. 20 mM of the tested compound was diluted to 2 mM using 100% DMSO, and the reference compound was diluted to 0.4 mM; the compound was continuously diluted with a 3-fold gradient at 10 concentration points using a Bravo liquid workstation.
b. The ECHO liquid workstation was used to transfer 10 nL of compound to the corresponding 384-well experimental plate with double replicate wells; the final concentrations of compound reactions were 1000, 333.3, 111.1, 37.0, 12.3, 4.1, 1.37, 0.46, 0.15, and 0.05 nM. The final concentrations of reference compounds were 200, 66.7, 22.2, 7.4, 2.47, 0.82, 0.27, 0.09, 0.03, 0.01 nM.
c. 10 nL DMSO and 10 nL 0.4 mM reference compounds were transferred to high signal control pores and low signal control pores respectively.
d. 0.1 μg/mL FXIa enzyme solution was prepared with buffer solution, and 10 μL enzyme solution was added to 384-well experimental plate, 5 mM substrate solution was prepared using buffer solution, and […] substrate solution was added to a 384-well experimental plate. The final concentration of FXIa was 0.05 μg/mL and the final concentration of the substrate was 2.5 mM.
e. The 384-hole experimental plate was centrifuged and incubated at 37° C. for 15 minutes.
f. The absorbance was measured at 405 nm using EnVision.
On to `Nc1ccc(-c2[nH]c([C@@H]3[C@H]4C[C@H]4c4cc(-c5cc(Cl)ccc5-n5cnnn5)cc(=O)n43)nc2F)c(F)c1F` [Embodiment 48], for which inhibition was half-maximal at 3.93 nM (IC50).
As for `Nc1ccc(-c2[nH]c([C@@H]3[C@H]4C[C@H]4c4cc(-c5cc(Cl)ccc5-n5cnnn5)cc(=O)n43)nc2F)cc1OC(F)(F)F` [Embodiment 49], inhibition was half-maximal at 6.4 nM (IC50).
For `Nc1ccc(-c2[nH]c([C@@H]3[C@H]4C[C@H]4c4cc(-c5cc(Cl)ccc5-n5cnnn5)cc(=O)n43)nc2F)cc1C(F)(F)F` [Embodiment 50], half-maximal inhibition (IC50) was put at 7.02 nM.
Same read-out and setting: for `O=c1cnc2cc(-c3cnc([C@@H]4[C@H]5C[C@H]5c5cc(-c6cc(Cl)ccc6-n6cnnn6)cc(=O)n54)[nH]3)ccc2[nH]1` [Embodiment 55] the value was 5.18 nM; for `O=C1Nc2ccc(-c3cnc([C@@H]4[C@H]5C[C@H]5c5cc(-c6cc(Cl)ccc6-n6cnnn6)cc(=O)n54)[nH]3)cc2CO1` [Embodiment 57], 8.32 nM.
The same measure, in the same setting: next, `O=c1[nH]c2ccc(-c3[nH]c([C@@H]4[C@H]5C[C@H]5c5cc(-c6cc(Cl)ccc6-n6cnnn6)cc(=O)n54)nc3F)cc2cc1C(F)(F)F` [Embodiment 58]: 3.25 nM; `CC1Cc2cc(-c3[nH]c([C@@H]4[C@H]5C[C@H]5c5cc(-c6cc(Cl)ccc6-n6cnnn6)cc(=O)n54)nc3F)ccc2NC1=O` (some centres unmarked) [Embodiment 59]: 1.41 nM.
Same read-out and setting: next, `O=C1COc2cc(-c3[nH]c([C@@H]4[C@H]5C[C@H]5c5cc(-c6cc(Cl)ccc6-n6cc(Cl)nn6)cc(=O)n54)nc3F)ccc2N1` [Embodiment 62]: 6.76 nM; `O=C1Nc2ccc(-c3[nH]c([C@@H]4[C@H]5C[C@H]5c5cc(-c6cc(Cl)ccc6-n6cc(Cl)nn6)cc(=O)n54)nc3F)cc2CO1` [Embodiment 64]: 4.78 nM; `Nc1noc2c(F)c(-c3cnc([C@@H]4[C@H]5C[C@H]5c5cc(-c6cc(Cl)ccc6-n6cc(Cl)nn6)cc(=O)n54)[nH]3)ccc12` [Embodiment 68]: 3.54 nM.
In the case of `Nc1noc2cc(-c3[nH]c([C@@H]4[C@H]5C[C@H]5c5cc(-c6cc(Cl)ccc6-n6cc(Cl)nn6)cc(=O)n54)nc3F)ccc12` [Embodiment 69], inhibition was half-maximal at 0.36 nM (IC50).
Still for that read-out and setting: next, `CNc1noc2cc(-c3[nH]c([C@@H]4[C@H]5C[C@H]5c5cc(-c6cc(Cl)ccc6-n6cc(Cl)nn6)cc(=O)n54)nc3F)ccc12` [Embodiment 70]: 2.16 nM; `Cn1nc(N)c2ccc(-c3[nH]c([C@@H]4[C@H]5C[C@H]5c5cc(-c6cc(Cl)ccc6-n6cc(Cl)nn6)cc(=O)n54)nc3F)cc21` [Embodiment 75]: 5.27 nM.
The same measure, in the same setting: for `Cn1nc(N)c2ccc(-c3[nH]c([C@@H]4[C@H]5C[C@H]5c5cc(-c6cc(Cl)ccc6-n6cnnn6)cc(=O)n54)nc3F)cc21` [Embodiment 76] the value was 0.76 nM; for `O=C1CCc2cc(-c3[nH]c([C@@H]4[C@H]5C[C@H]5c5cc(-c6cc(Cl)ccc6-n6cc(Cl)nn6)cc(=O)n54)nc3Cl)ccc2N1` [Embodiment 77], 3.18 nM.
The same measure, in the same setting: for `Nc1n[nH]c2cc(-c3[nH]c([C@@H]4[C@H]5C[C@H]5c5cc(-c6cc(Cl)ccc6-n6cc(C(F)(F)F)nn6)cc(=O)n54)nc3F)ccc12` [Embodiment 78] the value was 1.41 nM.

The record behind these values is patent US20220251095A1, “TRICYCLIC COMPOUND, PREPARATION METHOD THEREFOR AND USE THEREOF” (SHANGHAI JEMINCARE PHARMACEUTICALS CO., LTD., priority 2019, published 2022).
